Where two headings read alike, the source gives them in different places.
How the values were obtained:
BcII = BcII (Bacillus cereus, UniProt P04190); test: FC5 fluorogenic metallo-β-lactamase inhibition assay, BcII; type: biochemical; details: FC5 substrate
Source text: (§1) To investigate the extent to which cyclic boronates inhibit class C β-lactamases as well as the important class A ESBL and class D carbapenemase targets, we used a fluorogenic assay ([22]) to screen the cyclic boronates, which we have found to inhibit other β-lactamases ([21]), against them. The β-lactamases used for screening included TEM-1 and CTX-M-15 (class A), the metallo-β-lactamase (MBL) from Bacillus cereus (BcII), Verona integron-encoded metallo-β-lactamase 1 (VIM-1) (class B), AmpC from P. aeruginosa (class C), and OXA-23 and OXA-48 (class D), collectively representing all classes of β-lactamase.
(§2) We also screened the cyclic boronates against the model MBL, BcII, and VIM-1 using the FC5-based fluorogenic assay ([22]).
(§3) Inhibition assays were carried out using FC5 as a fluorogenic reporter substrate ([22]). Enzyme concentrations and buffers were the same as those employed in steady-state kinetic studies (see Table S2 in the supplemental material). […] The concentration of FC5 employed was 10 μM for TEM-1 and 5 μM for all other enzymes. […] Data at 0 min of incubation were obtained by addition of enzyme to a premixed solution of inhibitor and substrate. Residual enzyme activity was determined for a range of inhibitor concentrations. Nonlinear regression fitting of IC50 curves was carried out using a three-parameter dose-response curve in GraphPad Prism. Errors in IC50 are expressed as [σ(log IC50)/log IC50)] × IC50.
(§4) 45 Steady-state kinetics studies used a Pherastar FS microplate reader with UV-STAR® 96-well,
(§5) 47 black, µclear® plates (Greiner Bio-One) for FC5 (1). […]
(§6) 51 1 µM ZnSO4, 0.01% Triton X-100 for MBL assays. Reaction progress was monitored at 298 K
(§7) 53 intensity (λex = 380 nm, λem = 480 nm) for FC5 (1). Suitable enzyme concentrations for
(§8) 54 kinetic analysis were determined by monitoring changes in absorbance/fluorescence for
(§9) 55 enzyme concentrations between 20 nM and 20 pM. […]

VIM-1 = target: T1, VIM-1 (Pseudomonas aeruginosa, UniProt A0A0F7KYQ8); test: FC5 fluorogenic metallo-β-lactamase inhibition assay, VIM-1; type: biochemical; details: pH 7.5, FC5 substrate, read-out: IC50, μM (mean ± SD) for VIM-1, pH 7.5
T1 construct: His tag (3C-cleavable) (C, cleaved yes); made in house
Source text: as §1, §2, §3, §4, §5, §6, §7, §8, §9

CTX-M-15 [1] = target: T2, CTX-M-15 (Escherichia coli, UniProt Q9EXV5); type: biochemical, E. coli; details: CTX-M-15-catalysed hydrolysis of the substrate
T2 construct: hexahistidine (pOPINF, 3C-cleavable) (N, cleaved yes); made in house; host or cells: E. coli BL21(DE3)
T2 sequence (Q9EXV5 entry or part of it): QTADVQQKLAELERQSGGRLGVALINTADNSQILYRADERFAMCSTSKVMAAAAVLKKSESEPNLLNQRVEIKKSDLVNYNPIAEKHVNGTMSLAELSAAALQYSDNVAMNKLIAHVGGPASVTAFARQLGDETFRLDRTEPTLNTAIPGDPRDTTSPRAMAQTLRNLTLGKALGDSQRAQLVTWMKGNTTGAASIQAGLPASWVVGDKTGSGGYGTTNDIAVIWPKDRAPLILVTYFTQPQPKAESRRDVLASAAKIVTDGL
Protocol: as §4
(§10) 47 black, µclear® plates (Greiner Bio-One) for FC5 (1). Buffers employed were 100 mM
(§11) 48 phosphate buffer pH 7.5, 0.01% (v/v) Triton X-100 for TEM-1, CTX-M-15 and AmpC, 100 mM
(§12) 49 phosphate buffer pH 7.5, 50 mM sodium bicarbonate, 0.01% Triton X-100 for OXA-23 and
as §6, §7, §8
(§13) 55 enzyme concentrations between 20 nM and 20 pM.
(§14) Kinetic constants were determined using the initial rate of hydrolysis with the
(§15) 57 reaction initiated through the addition of enzyme to pre-prepared substrate concentrations.
(§16) 58 Substrate concentrations ranged between 400 µM and 0.4 µM. The Michaelis-Menten
(§17) 59 equation was fitted to data by non-linear regression using GraphPad Prism software to
(§18) 60 calculate the Michaelis-Menten constant and the limiting rate (2).

AmpC = target: T3, AmpC (Pseudomonas aeruginosa, UniProt P24735); type: biochemical; details: AmpC-catalysed hydrolysis of the substrate
T3 construct: hexahistidine (pOPINF, 3C-cleavable) (N, cleaved yes); made in house; host or cells: E. coli BL21(DE3)
T3 sequence (P24735 27-397): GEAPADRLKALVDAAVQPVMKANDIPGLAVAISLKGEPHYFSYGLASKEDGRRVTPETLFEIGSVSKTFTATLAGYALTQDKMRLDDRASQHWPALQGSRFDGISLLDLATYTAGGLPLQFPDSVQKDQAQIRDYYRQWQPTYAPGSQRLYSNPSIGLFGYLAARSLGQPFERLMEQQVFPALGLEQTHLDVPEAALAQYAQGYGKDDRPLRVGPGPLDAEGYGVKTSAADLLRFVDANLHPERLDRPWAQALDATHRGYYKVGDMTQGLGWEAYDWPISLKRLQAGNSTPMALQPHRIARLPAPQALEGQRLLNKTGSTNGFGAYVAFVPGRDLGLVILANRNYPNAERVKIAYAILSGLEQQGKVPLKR
Protocol: as §4, §10, §11, §12, §6, §7, §8, §13, §14, §15, §16, §17, §18

OXA-23 [2] = target: T4, OXA-23 (Acinetobacter baumannii, UniProt Q9L4P2); type: biochemical; details: OXA-23-catalysed hydrolysis of the substrate
T4 construct: hexahistidine (pOPINF, 3C-cleavable) (N, cleaved yes); made in house; host or cells: E. coli BL21(DE3)
T4 sequence (Q9L4P2 18-273): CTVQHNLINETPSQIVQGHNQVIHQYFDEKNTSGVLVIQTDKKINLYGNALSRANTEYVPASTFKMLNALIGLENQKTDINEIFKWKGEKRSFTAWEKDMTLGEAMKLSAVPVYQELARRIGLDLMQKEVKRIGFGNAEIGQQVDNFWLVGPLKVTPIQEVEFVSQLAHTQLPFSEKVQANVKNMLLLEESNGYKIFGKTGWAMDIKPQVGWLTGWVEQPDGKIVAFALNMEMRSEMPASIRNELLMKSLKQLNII
Protocol: as §4, §10, §11, §12, §6, §7, §8, §13, §14, §15, §16, §17, §18

OXA-48 [3] = target: T5, OXA-48 (Klebsiella pneumoniae, UniProt Q6XEC0); type: biochemical; details: OXA-48-catalysed hydrolysis of the substrate
T5 construct: hexahistidine (pOPINF, 3C-cleavable) (N, cleaved yes); made in house; host or cells: E. coli BL21(DE3)
T5 sequence (Q6XEC0 23-265 limits assumed): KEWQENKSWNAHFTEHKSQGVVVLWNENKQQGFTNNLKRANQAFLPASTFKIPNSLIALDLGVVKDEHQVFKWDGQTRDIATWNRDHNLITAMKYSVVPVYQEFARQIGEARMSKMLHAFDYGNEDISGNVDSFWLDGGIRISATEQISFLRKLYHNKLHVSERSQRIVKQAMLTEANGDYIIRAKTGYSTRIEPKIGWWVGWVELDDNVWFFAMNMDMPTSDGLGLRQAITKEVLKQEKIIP
Protocol: as §4, §10, §11, §12, §6, §7, §8, §13, §14, §15, §16, §17, §18

CTX-M-15 [4] = target: T2, CTX-M-15; test: FC5 fluorogenic β-lactamase inhibition assay, CTX-M-15; type: biochemical; details: FC5 substrate
Source text: as §1, §3, §4, §10, §11, §12, §6, §7, §8, §13, §14, §15, §16, §17, §18

AmpC from P. aeruginosa = target: T6, AmpC from P. aeruginosa (Pseudomonas aeruginosa, UniProt P24735); test: FC5 fluorogenic β-lactamase inhibition assay, AmpC; type: biochemical; details: IC50, nM (mean ± SD) for AmpC, FC5 substrate
T6 construct: hexahistidine (pOPINF, 3C-cleavable) (N, cleaved yes); made in house; host or cells: E. coli BL21(DE3)
T6 sequence (P24735 27-397): as the sequence (P24735 27-397) above
Source text: as §1, §3, §4, §10, §11, §12, §6, §7, §8, §13, §14, §15, §16, §17, §18

OXA-23 [5] = target: T4, OXA-23; test: FC5 fluorogenic β-lactamase inhibition assay, OXA-23; type: biochemical
Source text: as §1, §3, §4, §10, §11, §12, §6, §7, §8, §13, §14, §15, §16, §17, §18

OXA-48 [6] = target: T5, OXA-48; test: FC5 fluorogenic β-lactamase inhibition assay, OXA-48; type: biochemical
Source text: as §1, §3, §4, §10, §11, §12, §6, §7, §8, §13, §14, §15, §16, §17, §18

Sequence of BcII (P04190 31-257): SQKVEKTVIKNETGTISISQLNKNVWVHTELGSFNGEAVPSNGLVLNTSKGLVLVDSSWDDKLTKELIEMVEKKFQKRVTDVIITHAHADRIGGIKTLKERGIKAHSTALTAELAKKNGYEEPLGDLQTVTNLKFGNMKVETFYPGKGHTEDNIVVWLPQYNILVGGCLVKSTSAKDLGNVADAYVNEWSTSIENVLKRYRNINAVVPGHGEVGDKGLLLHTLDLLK

`O=C(O)C(S)c1ccccc1` (racemic) [(±)-Thiomandelic acid, thiomandelic acid] was tested, and the IC50 (BcII; pH 6.5, preincubation 0 min, read-out: IC50, μM (mean ± SD) for BcII, pH 6.5) was 0.27 ± 0.06 µM, the IC50 (BcII; pH 6.5, preincubation 10 min, read-out: IC50, μM (mean ± SD) for BcII, pH 6.5) was 0.9 ± 0.1 µM and the IC50 (BcII; pH 6.5, preincubation 30 min, read-out: IC50, μM (mean ± SD) for BcII, pH 6.5) was 0.5 ± 0.1 µM. The IC50 (BcII; pH 6.5, preincubation 60 min, read-out: IC50, μM (mean ± SD) for BcII, pH 6.5) was 2 ± 1 µM, the IC50 (BcII; pH 6.5, preincubation 360 min, read-out: IC50, μM (mean ± SD) for BcII, pH 6.5) was 2 ± 1 µM and the IC50 (BcII; pH 7.5, preincubation 0 min, read-out: IC50, μM (mean ± SD) for BcII, pH 7.5) was 0.3 ± 0.03 µM. It also gave an IC50 (BcII; pH 7.5, preincubation 10 min, read-out: IC50, μM (mean ± SD) for BcII, pH 7.5) of 0.39 ± 0.05 µM, an IC50 (BcII; pH 7.5, preincubation 30 min, read-out: IC50, μM (mean ± SD) for BcII, pH 7.5) of 0.33 ± 0.04 µM and an IC50 (BcII; pH 7.5, preincubation 60 min, read-out: IC50, μM (mean ± SD) for BcII, pH 7.5) of 0.5 ± 0.2 µM. For the same molecule, the IC50 (BcII; pH 7.5, preincubation 360 min, read-out: IC50, μM (mean ± SD) for BcII, pH 7.5) was 2 ± 1 µM, the IC50 (VIM-1; preincubation 0 min) was 0.38 ± 0.03 µM and the IC50 (VIM-1; preincubation 10 min) was 0.45 ± 0.02 µM. For the same molecule, the IC50 (VIM-1; preincubation 30 min) was 0.8 ± 0.9 µM, the IC50 (VIM-1; preincubation 60 min) was 1.4 ± 0.9 µM and the IC50 (VIM-1; preincubation 360 min) was 2 ± 1 µM.
`O=C(Cc1ccccc1)N[C@@H]1C(=O)N2C(C(=O)O)=C(COc3ccc4ccc(=O)oc4c3)CS(=O)(=O)[C@H]12` [FC5] showed a Km (CTX-M-15 [1]) of 170 ± 20 µM, a kcat (CTX-M-15 [1]) of 1100 ± 100 s⁻¹ and a Km (AmpC) of 600 ± 220 µM. It also gave a kcat (AmpC) of 500 ± 160 s⁻¹, a Km (OXA-23 [2]) of 500 ± 130 µM and a kcat (OXA-23 [2]) of 38 ± 7 s⁻¹. It also gave a Km (OXA-48 [3]) of 420 ± 50 µM and a kcat (OXA-48 [3]) of 28 ± 2 s⁻¹.
For `CC1(C)[C@H](C(=O)O)N2C(=O)C[C@H]2S1(=O)=O` [Sulbactam, sulbactam], the IC50 (CTX-M-15 [4]; IC50, nM (mean ± SD) for CTX-M-15, preincubation 0 min) was 44 ± 1 nM, the IC50 (CTX-M-15 [4]; IC50, nM (mean ± SD) for CTX-M-15, preincubation 10 min) was 29 ± 1 nM and the IC50 (CTX-M-15 [4]; IC50, nM (mean ± SD) for CTX-M-15, preincubation 30 min) was 28 ± 7 nM. The IC50 (CTX-M-15 [4]; IC50, nM (mean ± SD) for CTX-M-15, preincubation 60 min) was 32 ± 0.3 nM, the IC50 (CTX-M-15 [4]; IC50, nM (mean ± SD) for CTX-M-15, preincubation 360 min) was 16.6 ± 0.1 nM and the IC50 (AmpC from P. aeruginosa; preincubation 0 min) was greater than 200000 nM. The IC50 (AmpC from P. aeruginosa; preincubation 10 min) was 42000 nM, the IC50 (AmpC from P. aeruginosa; preincubation 30 min) was 8600 nM and the IC50 (AmpC from P. aeruginosa; preincubation 60 min) was 4400 nM. The IC50 (AmpC from P. aeruginosa; preincubation 360 min) was 1000 nM, the IC50 (OXA-23 [5]) was greater than 200000 nM and the IC50 (OXA-23 [5]; read-out: IC50, nM (mean ± SD) for OXA-23, preincubation 10 min, FC5 substrate) was greater than 200000 nM. It also gave an IC50 (OXA-23 [5]; read-out: IC50, nM (mean ± SD) for OXA-23, preincubation 30 min, FC5 substrate) greater than 200000 nM, an IC50 (OXA-23 [5]; read-out: IC50, nM (mean ± SD) for OXA-23, preincubation 60 min, FC5 substrate) greater than 200000 nM and an IC50 (OXA-23 [5]; read-out: IC50, nM (mean ± SD) for OXA-23, preincubation 360 min, FC5 substrate) greater than 200000 nM. It also gave an IC50 (OXA-48 [6]) greater than 200000 nM, an IC50 (OXA-48 [6]; read-out: IC50, nM (mean ± SD) for OXA-48, preincubation 10 min, FC5 substrate) greater than 200000 nM and an IC50 (OXA-48 [6]; read-out: IC50, nM (mean ± SD) for OXA-48, preincubation 30 min, FC5 substrate) greater than 200000 nM. For the same molecule, the IC50 (OXA-48 [6]; read-out: IC50, nM (mean ± SD) for OXA-48, preincubation 60 min, FC5 substrate) was greater than 200000 nM and the IC50 (OXA-48 [6]; read-out: IC50, nM (mean ± SD) for OXA-48, preincubation 360 min, FC5 substrate) was greater than 200000 nM.

— PMC5365654, “Cyclic Boronates Inhibit All Classes of β-Lactamases” (Antimicrobial Agents and Chemotherapy, 2017)
